Holding throughout (assay type): functional
Test [1] has as its system Mus musculus. Kind of test: Inhibition of acetic acid induced writhing in mice at dose of 3.12 mg/kg. A general note: An intraperitoneal irritant provokes the stretching counted in writhing tests.
Test [2] relates to Mus musculus. Kind of test: Inhibition of acetic acid induced writhing in mice at dose of 6.25 mg/kg.
Test [3] has as its system Mus musculus. Kind of test: Inhibition of acetic acid induced writhing in mice at dose of 12.5 mg/kg.
Test [4] relates to Mus musculus. Kind of test: Inhibition of acetic acid induced writhing in mice at dose of 25.0 mg/kg.
Test [5] relates to Mus musculus. Kind of test: Inhibition of acetic acid induced writhing in mice at dose of 1.56 mg/kg.
In test [6] the test system is Mus musculus. Kind of test: Compound was tested for hyperalgesia in mice induced by formalin expressed as time of licking at initial phase(up to 5 min)at dose 25 mg/kg.
The test system of test [7] is Mus musculus. Kind of test: Compound was tested for hyperalgesia in mice induced by formalin expressed as time of licking at late phase(up to 30 min) at dose 25 mg/kg.
The subject of test [8] is Mus musculus. Kind of test: Compound was tested for hyperalgesia in mice induced by formalin expressed as time of licking at initial phase(up to 5 min) at dose 10 mg/kg.
Test [9] deals with Mus musculus. Kind of test: Compound was tested for hyperalgesia in mice induced by formalin expressed as time of licking at late phase(up to 30 min) at dose 10 mg/kg.
In test [10] the test system is Mus musculus. Kind of test: Inhibition of acetic acid induced writhing in mice at dose of 25 mg/kg.
In test [11] the test system is Mus musculus. Kind of test: Compound was tested for hyperalgesia in mice induced by formalin expressed as time of licking at initial phase(up to 5 min) at 400 mg/kg.
Test [12] concerns Mus musculus. Kind of test: Inhibition of acetic acid induced writhing in mice at dose of 50 mg/kg.
In test [13] the test system is Mus musculus. Kind of test: Inhibition of acetic acid induced writhing in mice at dose of 200 mg/kg.
Test [14] deals with Mus musculus. Kind of test: Compound was tested for hyperalgesia in mice induced by formalin expressed as time of licking at late phase(up to 30 min) at 400 mg/kg.
Test [15] concerns Mus musculus. Kind of test: Inhibition of acetic acid induced writhing in mice at dose of 100 mg/kg.

Drawing on ChEMBL document CHEMBL1130654, “New phthalimide derivatives with potent analgesic activity: II” (1998), this text covers inhibition in vivo, ID50 and Time of licking for 9 compounds.

`Cc1ccc(-c2noc(CN3C(=O)c4ccccc4C3=O)n2)cc1` displayed an inhibition in vivo at 3.12 mg/kg in the test with Mus musculus [1] of 16.1%. In the test on Mus musculus [2], this compound had an ID50 of 7.2 and an inhibition in vivo at 6.25 mg/kg of 62.4%. This compound gave an inhibition in vivo at 12.5 mg/kg in the test on Mus musculus [3] of 72.5%.
Consider `COc1ccc(-c2noc(CN3C(=O)c4ccccc4C3=O)n2)cc1`, for which at 25 mg/kg the inhibition in vivo in the test on Mus musculus [4] was 62.6%. This compound also registered an inhibition in vivo at 3.12 mg/kg with Mus musculus [1] of 20.7%. In the test with Mus musculus [2], this compound gave an inhibition in vivo at 6.25 mg/kg of 41.9%. In the test on Mus musculus [3], the ID50 was found to be 14.9 and the inhibition in vivo at 12.5 mg/kg turned out to be 53.3%.
In the test with Mus musculus [1], `Cc1ccccc1-c1noc(CN2C(=O)c3ccccc3C2=O)n1` displayed an ID50 of 3.1 and an inhibition in vivo at 3.12 mg/kg of 76.5%. In the test on Mus musculus [2], this compound displayed an inhibition in vivo at 6.25 mg/kg of 80.5%. This compound also yielded an inhibition in vivo at 1.56 mg/kg in the test with Mus musculus [5] of 12.1%.
In the test on Mus musculus [1], `O=C1c2ccccc2C(=O)N1Cc1nc(-c2ccccc2)no1` yielded an ID50 of 2.2 and an inhibition in vivo at 3.12 mg/kg of 67.1%. Moreover, at 6.25 mg/kg the inhibition in vivo with Mus musculus [2] was 73.8%. For the same compound, in the test on Mus musculus [5], the inhibition in vivo at 1.56 mg/kg came out at 38.9%. The compound further registered a Time of licking with Mus musculus [6] of 84 s. In addition, the Time of licking in the test on Mus musculus [7] was determined as 143 s.
With `CN1CC[C@]23c4c5ccc(O)c4O[C@H]2[C@@H](O)C=C[C@H]3[C@H]1C5` [MORPHINE], the Time of licking is recorded as 41 s in the test with Mus musculus [8] and 0 s in the test with Mus musculus [9].
Turning to `O=C1c2ccccc2C(=O)N1Cc1nc(-c2ccc(Cl)cc2)no1`, the inhibition in vivo at 6.25 mg/kg in the test on Mus musculus [2] stood at 16.3%. Besides, in the test on Mus musculus [10], at 25 mg/kg the inhibition in vivo was 59.6%. In the test with Mus musculus [3], this compound had an ID50 of 20.3 and an inhibition in vivo at 12.5 mg/kg of 35.1%.
In the test with Mus musculus [1], `Cc1cccc(-c2noc(CN3C(=O)c4ccccc4C3=O)n2)c1` registered an ID50 of 2.9 and an inhibition in vivo at 3.12 mg/kg of 67.1%. The compound also registered an inhibition in vivo at 6.25 mg/kg with Mus musculus [2] of 79.2%. In the test with Mus musculus [5], this compound registered an inhibition in vivo at 1.56 mg/kg of 25.5%.
Regarding `CC(=O)Oc1ccccc1C(=O)O` [ASPIRIN], the Time of licking in the test on Mus musculus [11] amounted to 48 s; in the test on Mus musculus [14] it was 0 s. The inhibition in vivo at 50 mg/kg in the test on Mus musculus [12] worked out at 38.2%. Besides, the inhibition in vivo at 200 mg/kg with Mus musculus [13] turned out to be 74%. The compound also returned an ID50 in the test on Mus musculus [15] of 80.8. In the test with Mus musculus [15], the inhibition in vivo at 100 mg/kg came out at 61.7%.
In the test on Mus musculus [1], `O=C1c2ccccc2C(=O)N1Cc1nc(-c2ccc([N+](=O)[O-])cc2)no1` gave an ID50 of 4.1 and an inhibition in vivo at 3.12 mg/kg of 47.4%. Besides, in the test on Mus musculus [2], testing at 6.25 mg/kg gave an inhibition in vivo of 62.9%. For the same compound, the inhibition in vivo at 1.56 mg/kg with Mus musculus [5] stood at 29.8%.

The inhibition in vivo is the relative decrease from the control value, in per cent. A higher inhibition in vivo goes with strong suppression.
